The data set can be described thus: collision cross section in nitrogen (drift tube, single-field); higher = larger gas-phase ion size.
Where [1] appears, read: ion type: [M+H], ion source: APCI, ion mode: Positive.
Where [2] appears, read: ion type: [M+H], ion source: ESI, ion mode: Positive.
Where [3] appears, read: ion type: [M+Na], ion source: ESI, ion mode: Positive.
Where [4] appears, read: ion type: [M-H], ion source: ESI, ion mode: Negative.
Setting [5] is: ion type: [M+], ion source: APCI, ion mode: Positive.

Structures can show the parent of a compound that is named as a salt.
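Also: chemical standards at 10 µM analysed by drift tube IMS-QTOF MS in about 3.95 torr nitrogen, mean of duplicate injections differing ≤1%, mass error below 10 ppm.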

On to `O=C(COc1ccc(Cl)cc1)N1CCN(Cc2ccc3c(c2)OCO3)CC1` [Fipexide hydrochloride], for which the “collision cross section in nitrogen” value came out at 190.4 Å² under setting [1], 190.3 Å² under setting [2] and 202.1 Å² under setting [3].
Consider `N#Cc1nn(-c2c(Cl)cc(C(F)(F)F)cc2Cl)c(N)c1S(=O)C(F)(F)F` (stereo not drawn) [Fipronil], for which the “collision cross section in nitrogen” value under setting [4] came to 178.1 Å².
Regarding `CC(C)OC(=O)C(C)N(C(=O)c1ccccc1)c1ccc(F)c(Cl)c1` (stereo not drawn) [Flamprop-isopropyl], the “collision cross section in nitrogen” value reads like this: under setting [1], 182.1 Å²; under setting [3], 193.4 Å².
Turning to `O=c1cc(-c2ccccc2)oc2ccccc12` [Flavone], the “collision cross section in nitrogen” value under setting [1] was 146.6 Å² and the “collision cross section in nitrogen” value under setting [2] is 146.5 Å².
Consider `COc1ncc(F)c2nc(S(=O)(=O)Nc3c(F)cccc3F)nn12` [Florasulam], for which the “collision cross section in nitrogen” value is, setting by setting: under setting [1], 172.3 Å²; under setting [2], 172.1 Å²; under setting [3], 181.7 Å²; under setting [4], 174.5 Å².
Take `CCCCOC(=O)C(C)Oc1ccc(Oc2ccc(C(F)(F)F)cn2)cc1` (stereo not drawn) [Fluazifop-butyl]: the “collision cross section in nitrogen” value is, setting by setting: under setting [1], 195.5 Å²; under setting [2], 195.1 Å²; under setting [3], 194.4 Å²; under setting [4], 188.7 Å².
As to `O=[N+]([O-])c1cc(C(F)(F)F)c(Cl)c([N+](=O)[O-])c1Nc1ncc(C(F)(F)F)cc1Cl` [Fluazinam], the “collision cross section in nitrogen” value under setting [4] stood at 182.2 Å².
Consider `Cc1cc(C(F)(C(F)(F)F)C(F)(F)F)ccc1NC(=O)c1cccc(I)c1C(=O)NC(C)(C)CS(C)(=O)=O` [Flubendiamide], for which the “collision cross section in nitrogen” value is recorded as 222.6 Å² under setting [3] and 222.1 Å² under setting [4].
Turning to `COc1nn(C(=O)NS(=O)(=O)c2ccccc2OC(F)(F)F)c(=O)n1C` [Flucarbazone-sodium], the “collision cross section in nitrogen” value under setting [4] came out at 182.9 Å².
For `OC(Cn1cncn1)(Cn1cncn1)c1ccc(F)cc1F` [Fluconazole], the “collision cross section in nitrogen” value is listed as 167.5 Å² under setting [1], 167.2 Å² under setting [2] and 172 Å² under setting [3].
For the molecule `CC(C)C(C(=O)OC(C#N)c1cccc(Oc2ccccc2)c1)c1ccc(OC(F)F)cc1` (stereo not drawn) [Flucythrinate], the “collision cross section in nitrogen” value by setting is: under setting [1], 214.8 Å²; under setting [3], 208.3 Å².
With `N#Cc1c[nH]cc1-c1cccc2c1OC(F)(F)O2` [Fludioxonil], the “collision cross section in nitrogen” value under setting [4] amounted to 146.3 Å².
As to `CC(C)N(C(=O)COc1nnc(C(F)(F)F)s1)c1ccc(F)cc1` [Flufenacet], the “collision cross section in nitrogen” value under setting [3] was 187.5 Å².
As for `O=C(O)c1ccccc1Nc1cccc(C(F)(F)F)c1` [Flufenamic acid], the “collision cross section in nitrogen” value under setting [5] worked out at 157.7 Å² and the “collision cross section in nitrogen” value under setting [4] stood at 160.9 Å².
For the molecule `O=C(NC(=O)c1c(F)cccc1F)Nc1ccc(Oc2ccc(C(F)(F)F)cc2Cl)cc1F` [Flufenoxuron], the “collision cross section in nitrogen” value under setting [4] is listed as 215.8 Å².
For the molecule `CCOC(=O)COc1cc(-n2ncc(C(F)(F)F)c(C)c2=O)c(F)cc1Cl` [Flufenpyr-ethyl], the “collision cross section in nitrogen” value is reported as 182.1 Å² under setting [2], 191.4 Å² under setting [3] and 183.3 Å² under setting [4].
In the case of `Cc1ccn2nc(S(=O)(=O)Nc3c(F)cccc3F)nc2n1` [Flumetsulam], the “collision cross section in nitrogen” value under setting [1] is on record as 167.4 Å², the “collision cross section in nitrogen” value under setting [2] amounted to 167.7 Å², the “collision cross section in nitrogen” value under setting [3] is 176.7 Å² and the “collision cross section in nitrogen” value under setting [4] was 172.5 Å².
Regarding `CCCCCOC(=O)COc1cc(N2C(=O)C3=C(CCCC3)C2=O)c(F)cc1Cl` [Flumiclorac-pentyl], the “collision cross section in nitrogen” value runs as follows: under setting [3], 209.5 Å²; under setting [4], 196.2 Å².
For `C#CCN1C(=O)COc2cc(F)c(N3C(=O)C4=C(CCCC4)C3=O)cc21` [Flumioxazin], the “collision cross section in nitrogen” value runs as follows: under setting [2], 183.7 Å²; under setting [5], 181 Å²; under setting [4], 184.5 Å².
For `CC1(C)O[C@@H]2C[C@H]3[C@@H]4C[C@H](F)C5=CC(=O)C=C[C@]5(C)[C@@]4(F)[C@@H](O)C[C@]3(C)[C@]2(C(=O)CO)O1` [Fluocinolone acetonide], the “collision cross section in nitrogen” value runs as follows: under setting [3], 226.8 Å²; under setting [4], 194.2 Å².
Regarding `CN(C)C(=O)Nc1cccc(C(F)(F)F)c1` [Fluometuron], the “collision cross section in nitrogen” value is given as 150.5 Å² under setting [1], 150.1 Å² under setting [2], 155 Å² under setting [3] and 146.2 Å² under setting [4].
For the molecule `O=C(NCc1ncc(C(F)(F)F)cc1Cl)c1c(Cl)cccc1Cl` [Fluopicolide], the “collision cross section in nitrogen” value runs as follows: under setting [2], 175.4 Å²; under setting [3], 187 Å².
With `O=C1OC2(c3ccc(O)cc3Oc3cc(O)ccc32)c2ccccc21` [Fluorescein sodium], the “collision cross section in nitrogen” value by setting is: under setting [1], 174.3 Å²; under setting [2], 173.8 Å²; under setting [3], 189.1 Å²; under setting [4], 176.1 Å².
Regarding `O=C1OC2(c3ccc(O)cc3Oc3cc(O)ccc32)c2ccccc21` [Fluorescein], the “collision cross section in nitrogen” value under setting [1] was 174.2 Å², the “collision cross section in nitrogen” value under setting [2] worked out at 174.2 Å², the “collision cross section in nitrogen” value under setting [3] stood at 190.6 Å² and the “collision cross section in nitrogen” value under setting [4] amounted to 176.8 Å².
As to `CCOC(=O)COC(=O)c1cc(Oc2ccc(C(F)(F)F)cc2Cl)ccc1[N+](=O)[O-]` [Fluoroglycofen-ethyl], the “collision cross section in nitrogen” value under setting [3] was 210.7 Å².
In the case of `CC(=O)[C@@]1(O)CC[C@H]2[C@@H]3C[C@H](C)C4=CC(=O)C=C[C@]4(C)[C@@]3(F)[C@@H](O)C[C@@]21C` [Fluorometholone], the “collision cross section in nitrogen” value is, setting by setting: under setting [1], 186.6 Å²; under setting [3], 211.3 Å².
`O=C(Nc1cccc(C(F)(F)F)c1)c1cc(Br)cc(Br)c1O` [Fluorosalan]: the “collision cross section in nitrogen” value under setting [4] stood at 175.5 Å².
For the molecule `CO/N=C(/C1=NOCCO1)c1ccccc1Oc1ncnc(Oc2ccccc2Cl)c1F` [Fluoxastrobin], the “collision cross section in nitrogen” value was determined as 204.8 Å² under setting [1], 204.3 Å² under setting [2] and 208.1 Å² under setting [3].
For `CC1(C)O[C@@H]2C[C@H]3[C@@H]4C[C@H](F)C5=CC(=O)CC[C@]5(C)[C@H]4[C@@H](O)C[C@]3(C)[C@]2(C(=O)CO)O1` [Flurandrenolide], the “collision cross section in nitrogen” value was 186.9 Å² under setting [2] and 201.8 Å² under setting [4].
With `CCCCCCC(C)OC(=O)COc1nc(F)c(Cl)c(N)c1Cl` (stereo not drawn) [Fluroxypyr-meptyl], the “collision cross section in nitrogen” value under setting [3] amounted to 194.3 Å² and the “collision cross section in nitrogen” value under setting [4] stood at 176.2 Å².
As to `Nc1c(Cl)c(F)nc(OCC(=O)O)c1Cl` [Fluroxypyr], under setting [4], the “collision cross section in nitrogen” value is recorded as 141.3 Å².
For the molecule `C[Si](Cn1cncn1)(c1ccc(F)cc1)c1ccc(F)cc1` [Flusilazole], the “collision cross section in nitrogen” value by setting is: under setting [1], 176.6 Å²; under setting [2], 174.9 Å².
For `CC(C)C(=O)Nc1ccc([N+](=O)[O-])c(C(F)(F)F)c1` [Flutamide], the “collision cross section in nitrogen” value under setting [4] turned out to be 154.9 Å².
Take `CC(C)Oc1cccc(NC(=O)c2ccccc2C(F)(F)F)c1` [Flutolanil]: the “collision cross section in nitrogen” value turned out to be 173.1 Å² under setting [1], 172.7 Å² under setting [2], 183.5 Å² under setting [3] and 176.1 Å² under setting [4].
On to `OC(Cn1cncn1)(c1ccc(F)cc1)c1ccccc1F` (stereo not drawn) [Flutriafol], for which the “collision cross section in nitrogen” value turned out to be 167.5 Å² under setting [2] and 183.1 Å² under setting [3].
`CC(C)n1c(/C=C/[C@H](O)C[C@H](O)CC(=O)O)c(-c2ccc(F)cc2)c2ccccc21` [Fluvastatin]: the “collision cross section in nitrogen” value under setting [4] was 200 Å².
Consider `O=C(Nc1ccccc1)Nc1ccnc(Cl)c1` [Forchlorfenuron], for which the “collision cross section in nitrogen” value was 156.5 Å² under setting [1], 156.9 Å² under setting [2] and 155.2 Å² under setting [4].

Values taken from the supplement of paper PMC12317010.
